According to patent publication US9833497B2, “Human originated EGF domain proteins and use of the same” (CHENGDU SOURCEBIO LIMITED-LIABILITY COMPANY, priority 2013, dated 2017):

Columns and labels:
Type in all cases: cell-based
Enterobacter cloacae = test: MIC against Gram-negative bacteria: Enterobacter cloacae; details: Enterobacter cloacae; 5×10^5 CFU/mL; 10 h cultivation at 37° C.
How it was run: (§1)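 Growth inhibition by human EGF domain proteins was scored in LB liquid culture seeded at 5×10^5 CFU/mL. Protein was applied as a two-fold dilution series in triplicate, with shaking incubation at 37° C; MIC is the lowest concentration giving no growth.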

Proteus mirabilis = test: MIC against Gram-negative bacteria: Proteus mirabilis; details: Proteus mirabilis; 5×10^5 CFU/mL; 10 h cultivation at 37° C.
How it was run: as §1

Citrobacter diversus = test: MIC against Gram-negative bacteria: Citrobacter diversus; details: Citrobacter diversus; 5×10^5 CFU/mL; 10 h cultivation at 37° C.
How it was run: as §1

Aeromonas hydrophila = test: MIC against Gram-negative bacteria: Aeromonas hydrophila; details: Aeromonas hydrophila; 5×10^5 CFU/mL; 10 h cultivation at 37° C.
How it was run: as §1

Klebsiella pneumonia = test: MIC against Gram-negative bacteria: Klebsiella pneumonia; details: Klebsiella pneumonia; 5×10^5 CFU/mL; 10 h cultivation at 37° C.
How it was run: as §1

Proteus vulgaris = test: MIC against Gram-negative bacteria: Proteus vulgaris; details: Proteus vulgaris; 5×10^5 CFU/mL; 10 h cultivation at 37° C.
How it was run: as §1

Serratia marcescens = test: MIC against Gram-negative bacteria: Serratia marcescens; details: Serratia marcescens; 5×10^5 CFU/mL; 10 h cultivation at 37° C.
How it was run: as §1

E. coli DH5α = test: Antibacterial activity: MIC and growth curve against E. coli DH5α in 96-well plate; details: minimal inhibitory concentration against E. coli DH5α; 96-well plate, 5×10^5 CFU/mL, 37° C., judged after 8 h
How it was run: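 Log-phase DH5α (OD600 about 0.5, 37° C, 185 rpm in LB) was pelleted, resuspended in fresh LB and seeded at 5×10^5 CFU/mL with recombinant protein at 50, 25 and 12.5 μg/mL (two-fold series), in triplicate. Plates were shaken at 175 rpm, 37° C, and OD600 was read every 30 min. MIC was the lowest concentration with no growth.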

E. coli BL21 = test: MIC against Gram-negative bacteria: E. coli BL21; details: E. coli BL21; 5×10^5 CFU/mL; 10 h cultivation at 37° C.
How it was run: as §1

Moraxella catarrhalis = test: MIC against Gram-negative bacteria: Moraxella catarrhalis; details: Moraxella catarrhalis; 5×10^5 CFU/mL; 10 h cultivation at 37° C.
How it was run: as §1

Pseudomonas aeruginosa = test: MIC against Gram-negative bacteria: Pseudomonas aeruginosa; details: Pseudomonas aeruginosa; 5×10^5 CFU/mL; 10 h cultivation at 37° C.
How it was run: as §1

Substance | MIC against E. cloacae (Enterobacter cloacae) | MIC against P. mirabilis (Proteus mirabilis) | MIC against C. diversus (Citrobacter diversus) | MIC against A. hydrophila (Aeromonas hydrophila) | MIC against K. pneumonia (Klebsiella pneumonia) | MIC against P. vulgaris (Proteus vulgaris) | MIC against S. marcescens (Serratia marcescens) | MIC (E. coli DH5α) | MIC against E. coli BL21 (E. coli BL21) | MIC against M. catarrhalis (Moraxella catarrhalis) | MIC against P. aeruginosa (Pseudomonas aeruginosa)
PRT1346 (EVNECQSNPCLNNAVCEDQVGGFLCKCPPGFLGTRCG; listed as Homo sapiens) | 12.5 µg/mL | 25 µg/mL | 25 µg/mL | 50 µg/mL | 25 µg/mL | 50 µg/mL | 25 µg/mL | 12.5 µg/mL | 25 µg/mL | 12.5 µg/mL | 50 µg/mL
PRT1347 (NVDECLSQPCKNGATCKDGANSFRCLCAAGFTGSHCE; listed as Homo sapiens) | 25 µg/mL | 50 µg/mL | 12.5 µg/mL | 25 µg/mL | 50 µg/mL | 100 µg/mL | 12.5 µg/mL | 25 µg/mL | 12.5 µg/mL | 25 µg/mL | 25 µg/mL
PRT1351 (TAVCQSPCLNGGKCVRPNRCHCLSSWTGHNCS; listed as Homo sapiens) | 12.5 µg/mL | 12.5 µg/mL | 12.5 µg/mL | 12.5 µg/mL | 25 µg/mL | 25 µg/mL | 12.5 µg/mL | 25 µg/mL | 25 µg/mL | 25 µg/mL | 50 µg/mL
PRT1352 (SEPECPGNCHLRGRCIDGQCICDDGFTGEDCS; listed as Homo sapiens) | 12.5 µg/mL | 25 µg/mL | 50 µg/mL | 12.5 µg/mL | 12.5 µg/mL | 50 µg/mL | 25 µg/mL | 12.5 µg/mL | 12.5 µg/mL | 12.5 µg/mL | 12.5 µg/mL
PRT1353 (SDMSCPNDCHQHGRCVNGMCVCDDGYTGEDCR; listed as Homo sapiens) | 12.5 µg/mL | 12.5 µg/mL | 50 µg/mL | 25 µg/mL | 25 µg/mL | 25 µg/mL | 50 µg/mL | 12.5 µg/mL | 25 µg/mL | 25 µg/mL | 50 µg/mL
PRT1354 (RDRQCPRDCSNRGLCVDGQCVCEDGFTGPDCA; listed as Homo sapiens) | 25 µg/mL | 25 µg/mL | 25 µg/mL | 12.5 µg/mL | 50 µg/mL | 12.5 µg/mL | 25 µg/mL | 25 µg/mL | 12.5 µg/mL | 50 µg/mL | 25 µg/mL
PRT1355 (AELSCPNDCHGQGRCVNGQCVCHEGFMGKDCK; listed as Homo sapiens) | 50 µg/mL | 25 µg/mL | 50 µg/mL | 12.5 µg/mL | 25 µg/mL | 50 µg/mL | 25 µg/mL | 50 µg/mL | 25 µg/mL | 12.5 µg/mL | 12.5 µg/mL
PRT1356 (KEQRCPSDCHGQGRCVDGQCICHEGFTGLDCG; listed as Homo sapiens) | 25 µg/mL | 50 µg/mL | 12.5 µg/mL | 25 µg/mL | 50 µg/mL | 25 µg/mL | 12.5 µg/mL | 12.5 µg/mL | 50 µg/mL | 25 µg/mL | 12.5 µg/mL
PRT1357 (GQHSCPSDCNNLGQCVSGRCICNEGYSGEDCS; listed as Homo sapiens) | 25 µg/mL | 12.5 µg/mL | 50 µg/mL | 100 µg/mL | 50 µg/mL | 50 µg/mL | 12.5 µg/mL | 50 µg/mL | 12.5 µg/mL | 12.5 µg/mL | 25 µg/mL
PRT1358 (SQLACPSDCNDQGKCVNGVCICFEGYAGADCS; listed as Homo sapiens) | 12.5 µg/mL | 12.5 µg/mL | 12.5 µg/mL | 25 µg/mL | 12.5 µg/mL | 25 µg/mL | 12.5 µg/mL | 50 µg/mL | 12.5 µg/mL | 25 µg/mL | 50 µg/mL
PRT1359 (SREICPVPCSEEHGTCVDGLCVCHDGFAGDDCN; listed as Homo sapiens) | 25 µg/mL | 25 µg/mL | 25 µg/mL | 12.5 µg/mL | 12.5 µg/mL | 12.5 µg/mL | 25 µg/mL | 25 µg/mL | 12.5 µg/mL | 12.5 µg/mL | 25 µg/mL
PRT1360 (NKPLCLNNCYNRGRCVENECVCDEGFTGEDCS; listed as Homo sapiens) | 12.5 µg/mL | 12.5 µg/mL | 12.5 µg/mL | 50 µg/mL | 25 µg/mL | 25 µg/mL | 50 µg/mL | 12.5 µg/mL | 25 µg/mL | 50 µg/mL | 50 µg/mL
PRT1361 (SELICPNDCFDRGRCINGTCYCEEGFTGEDCG; listed as Homo sapiens) | 12.5 µg/mL | 12.5 µg/mL | 50 µg/mL | 25 µg/mL | 50 µg/mL | 25 µg/mL | 50 µg/mL | 25 µg/mL | 12.5 µg/mL | 25 µg/mL | 25 µg/mL
PRT1362 (GKPTCPHACHTQGRCEEGQCVCDEGFAGVDCS; listed as Homo sapiens) | 12.5 µg/mL | 12.5 µg/mL | 12.5 µg/mL | 50 µg/mL | 25 µg/mL | 12.5 µg/mL | 12.5 µg/mL | 12.5 µg/mL | 25 µg/mL | 50 µg/mL | 50 µg/mL
PRT1363 (SEKRCPADCHNRGRCVDGRCECDDGFTGADCG; listed as Homo sapiens) | 50 µg/mL | 25 µg/mL | 25 µg/mL | 12.5 µg/mL | 12.5 µg/mL | 12.5 µg/mL | 50 µg/mL | 12.5 µg/mL | 12.5 µg/mL | 50 µg/mL | 12.5 µg/mL
PRT1364 (GELKCPNGCSGHGRCVNGQCVCDEGYTGEDCS; listed as Homo sapiens) | 25 µg/mL | 12.5 µg/mL | 12.5 µg/mL | 25 µg/mL | 50 µg/mL | 12.5 µg/mL | 12.5 µg/mL | 25 µg/mL | 12.5 µg/mL | 12.5 µg/mL | 25 µg/mL
